Legend:
Format in all cases: in vivo
[1] = system: barnyard grass (Echinochloa crus-galli); test: Pre-emergence application, herbicidal effect on barnyard grass (Table 1); parameters: key: 0: not damaged; 5: completely killed; conditions: 20 days after application, score 0-5
Procedure, shortened: (§1)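 Pre-emergence soil application of wettable powders diluted in water over covered seeds (~10 cm pots). Greenhouse growth; visual 0–5 rating (0 none, 5 dead) at 20 days.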

[2] = system: large crabgrass (Digitaria sanguinalis); test: Pre-emergence application, herbicidal effect on large crabgrass (Table 1); parameters: key: 0: not damaged; 5: completely killed; conditions: 20 days after application, score 0-5
Procedure, shortened: as §1

radish = test: Pre-emergence application, herbicidal effect on radish (Table 1); parameters: key: 0: not damaged; 5: completely killed; conditions: 20 days after application, score 0-5
Procedure, shortened: as §1

[3] = system: redroot pigweed (Amaranthus retroflexus); test: Pre-emergence application, herbicidal effect on redroot pigweed (Table 1); parameters: key: 0: not damaged; 5: completely killed; conditions: 20 days after application, score 0-5
Procedure, shortened: as §1

[4] = system: common purslane (Portulaca oleracea); test: Pre-emergence application, herbicidal effect on common purslane (Table 1); parameters: key: 0: not damaged; 5: completely killed; conditions: 20 days after application, score 0-5
Procedure, shortened: as §1

[5] = system: common lambsquarter (Chenopodium album); test: Pre-emergence application, herbicidal effect on common lambsquarter (Table 1); parameters: key: 0: not damaged; 5: completely killed; conditions: 20 days after application, score 0-5
Procedure, shortened: as §1

rice = test: Water application, phytotoxicity on rice (Table 2); parameters: key: 0: no effect; 1: very slightly affected; 2: slightly affected; 3: moderately affected; 4: considerably affected; 5: completely killed; conditions: 25 days, score 0-5
Procedure, shortened: (§2)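 Under water-lodged conditions, wettable-powder test compounds are applied to paddy soil carrying transplanted rice (3-leaf) and sown barnyard grass. Activity on these and on spontaneously emerged broad-leaved weeds is graded 0 to 5 twenty-five days later.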

[6] = system: barnyard grass (Echinochloa crus-galli); test: Water application, herbicidal effect on barnyard grass (Table 2); parameters: key: 0: not damaged; 5: completely killed; conditions: 25 days, score 0-5
Procedure, shortened: as §2

[7] = system: broad-leaved weeds, e.g., monochoria, false pimpernel and toothcup; test: Water application, herbicidal effect on broad-leaved weeds (Table 2); parameters: key: 0: not damaged; 5: completely killed; conditions: 25 days, score 0-5
Procedure, shortened: as §2

SMILES | Herbicidal effect, barnyard grass ([1]; 10 g./a.) | Herbicidal effect, barnyard grass ([1]; 20 g./a.) | Herbicidal effect, barnyard grass ([1]; 40 g./a.) | Herbicidal effect, large crabgrass ([2]; 10 g./a.) | Herbicidal effect, large crabgrass ([2]; 20 g./a.) | Herbicidal effect, large crabgrass ([2]; 40 g./a.) | Herbicidal effect, radish (radish; 10 g./a.) | Herbicidal effect, radish (radish; 20 g./a.) | Herbicidal effect, radish (radish; 40 g./a.) | Herbicidal effect, redroot pigweed ([3]; 10 g./a.) | Herbicidal effect, redroot pigweed ([3]; 20 g./a.) | Herbicidal effect, redroot pigweed ([3]; 40 g./a.) | Herbicidal effect, common purslane ([4]; 10 g./a.) | Herbicidal effect, common purslane ([4]; 20 g./a.) | Herbicidal effect, common purslane ([4]; 40 g./a.) | Herbicidal effect, common lambsquarter ([5]; 10 g./a.) | Herbicidal effect, common lambsquarter ([5]; 20 g./a.) | Herbicidal effect, common lambsquarter ([5]; 40 g./a.) | Phytotoxicity on rice (rice; 10 g/a) | Phytotoxicity on rice (rice; 20 g/a) | other results
CCCCOP(=O)(SCC)SCC(=O)N1CCCCC1CC (stereo not drawn) [Compound 92] | 5 | 5 | 5 | 5 | 5 | 5 | 0 | 0 | 0 | 5 | 5 | 5 | 5 | 5 | 5 | 5 | 5 | 5 | 0 | 0 | Phytotoxicity on rice (rice; 40 g/a): 2; Herbicidal effects, barnyard grass ([6]; 10 g/a): 5; Herbicidal effects, barnyard grass ([6]; 20 g/a): 5; Herbicidal effects, barnyard grass ([6]; 40 g/a): 5; Herbicidal effects, broad-leaved weeds ([7]; 10 g/a): 5; Herbicidal effects, broad-leaved weeds ([7]; 20 g/a): 5; Herbicidal effects, broad-leaved weeds ([7]; 40 g/a): 5
CCCCCSP(=O)(OCCC)SCC(=O)N1CCCCC1CC (stereo not drawn) [Compound 89] | 4 | 5 | 5 | 4 | 5 | 5 | 0 | 0 | 0 | 3 | 4 | 5 | 3 | 4 | 5 | 3 | 4 | 5 | 0 | 0 | Phytotoxicity on rice (rice; 40 g/a): 0; Herbicidal effects, barnyard grass ([6]; 10 g/a): 5; Herbicidal effects, barnyard grass ([6]; 20 g/a): 5; Herbicidal effects, barnyard grass ([6]; 40 g/a): 5; Herbicidal effects, broad-leaved weeds ([7]; 10 g/a): 5; Herbicidal effects, broad-leaved weeds ([7]; 20 g/a): 5; Herbicidal effects, broad-leaved weeds ([7]; 40 g/a): 5
CCOP(=O)(SCC(=O)N1CCCC(C)C1)SC(C)C (stereo not drawn) [Compound 22] | 4 | 5 | 5 | 4 | 5 | 5 | 0 | 0 | 0 | 3 | 4 | 5 | 4 | 4 | 4 | 4 | 4 | 5 | 0 | 0 | Phytotoxicity on rice (rice; 40 g/a): 0; Herbicidal effects, barnyard grass ([6]; 10 g/a): 5; Herbicidal effects, barnyard grass ([6]; 20 g/a): 5; Herbicidal effects, barnyard grass ([6]; 40 g/a): 5; Herbicidal effects, broad-leaved weeds ([7]; 10 g/a): 5; Herbicidal effects, broad-leaved weeds ([7]; 20 g/a): 5; Herbicidal effects, broad-leaved weeds ([7]; 40 g/a): 5
CCOP(=O)(SCC(=O)N1CCCCC1C)SC(C)c1ccccc1 (stereo not drawn) [Compound 64] | 4 | 5 | 5 | 4 | 5 | 5 | 0 | 0 | 0 | 3 | 3 | 4 | 3 | 3 | 4 | 3 | 4 | 4 | 0 | 0 | Phytotoxicity on rice (rice; 40 g/a): 0; Herbicidal effects, barnyard grass ([6]; 10 g/a): 5; Herbicidal effects, barnyard grass ([6]; 20 g/a): 5; Herbicidal effects, barnyard grass ([6]; 40 g/a): 5; Herbicidal effects, broad-leaved weeds ([7]; 10 g/a): 5; Herbicidal effects, broad-leaved weeds ([7]; 20 g/a): 5; Herbicidal effects, broad-leaved weeds ([7]; 40 g/a): 5
CCCCOP(=O)(SCCC)SCC(=O)N1CCCCC1CC (stereo not drawn) [Compound 93] | 5 | 5 | 5 | 5 | 5 | 5 | 0 | 0 | 0 | 4 | 5 | 5 | 4 | 4 | 5 | 4 | 5 | 5 | 0 | 0 | Phytotoxicity on rice (rice; 40 g/a): 0; Herbicidal effects, barnyard grass ([6]; 10 g/a): 5; Herbicidal effects, barnyard grass ([6]; 20 g/a): 5; Herbicidal effects, barnyard grass ([6]; 40 g/a): 5; Herbicidal effects, broad-leaved weeds ([7]; 10 g/a): 5; Herbicidal effects, broad-leaved weeds ([7]; 20 g/a): 5; Herbicidal effects, broad-leaved weeds ([7]; 40 g/a): 5
CCCCOP(=O)(SCC(=O)N1CCCCC1CC)SCC(C)C (stereo not drawn) [Compound 97] | 4 | 5 | 5 | 4 | 5 | 5 | 0 | 0 | 0 | 3 | 4 | 5 | 4 | 4 | 5 | 3 | 4 | 5 | 0 | 0 | Phytotoxicity on rice (rice; 40 g/a): 0; Herbicidal effects, barnyard grass ([6]; 10 g/a): 5; Herbicidal effects, barnyard grass ([6]; 20 g/a): 5; Herbicidal effects, barnyard grass ([6]; 40 g/a): 5; Herbicidal effects, broad-leaved weeds ([7]; 10 g/a): 5; Herbicidal effects, broad-leaved weeds ([7]; 20 g/a): 5; Herbicidal effects, broad-leaved weeds ([7]; 40 g/a): 5
